Laboratory results from patent publication US20230158178A1, “Radionuclide Tracers of 1-Amino-3,4-Difluorocyclopentane-1-Carboxylic Acid, Derivatives, and Uses Thereof” (Emory University, priority 2020, published 2023).
Values belong to the compound of their own block, whether it stands above or below them.

What was measured:
[1] = tested on: rat 9 L gliosarcoma; conditions: 9 L gliosarcoma cells; cited from earlier work
[2] = tested on: human U87 ΔEGFR glioblastoma; assay: Cell uptake inhibition study in U87 ΔEGFR glioblastoma cells; type: cell-based
Experimental: Consistent with this reasoning, having knowledge of which systems take part in transporting a particular amino acid is of value, since this information can be used to determine which tumor types the amino acid may be useful for imaging. To establish which systems are responsible for transporting a particular AA, cell uptake inhibition studies are performed. In these studies, a known number of cells of a certain line are suspended in a media containing a known quantity of an amino acid radiotracer and incubated for a set period to allow for the amino acid to be transported into the cells. […] The radioactivity present within the cells after rinsing is measured and expressed as a normalized percent uptake of the radioactive amino acid dose that the cells were initially exposed to. […]
With this information in hand, the cell uptake experiment is performed again, but in the presence of an excess of a substrate known to have a high affinity for a particular transport system. […] Consequently, any reduction in cellular uptake of radioactivity relative to the control experiment is assumed to arise from loss of amino acid transport by the inhibited system. […] Furthermore, the degree to which the system participates in transport can be roughly evaluated by the percent loss (inhibition) of amino acid uptake relative to the control. […]

[3] = tested on: 9 L, U87 ΔEGFR, and DU145 cell; assay: Cell uptake and uptake inhibition, stated across all cell lines tested; type: cell-based, rat; human; conditions: for relative cell uptake (in words): all cell lines; for mechanism of transport (in words): each of the cell lines tested
Experimental: Data are presented as percent ligand uptake of the initial dose per 0.5 million cells (% ID/5×10^5 cells).
(§1) Consistent with this reasoning, having knowledge of which systems take part in transporting a particular amino acid is of value, since this information can be used to determine which tumor types the amino acid may be useful for imaging. To establish which systems are responsible for transporting a particular AA, cell uptake inhibition studies are performed. In these studies, a known number of cells of a certain line are suspended in a media containing a known quantity of an amino acid radiotracer and incubated for a set period to allow for the amino acid to be transported into the cells. […] The radioactivity present within the cells after rinsing is measured and expressed as a normalized percent uptake of the radioactive amino acid dose that the cells were initially exposed to. This experiment establishes the degree to which a given amino acid is taken up by a group of cells in the absence of any perturbing conditions and serves as the control.
(§2) With this information in hand, the cell uptake experiment is performed again, but in the presence of an excess of a substrate known to have a high affinity for a particular transport system. The excess substrate floods the targeted system, competitively inhibiting the transport of other amino acids. Consequently, any reduction in cellular uptake of radioactivity relative to the control experiment is assumed to arise from loss of amino acid transport by the inhibited system. It follows that if inhibition of a transport system results in reduced uptake of a given amino acid, then that system contributes to cellular transport of the amino acid. Furthermore, the degree to which the system participates in transport can be roughly evaluated by the percent loss (inhibition) of amino acid uptake relative to the control. In addition to delineating transport mechanisms, cell uptake studies provide insight into the avidity of a particular cell line for an amino acid.
(§3) The potential of [^18F]3.09, [^18F]3.23, and [^18F]3.33 as PET radiotracers were evaluated for imaging brain and prostate cancer, cell uptake studies with rat 9 L gliosarcoma, human U87 ΔEGFR glioblastoma, and human DU145 androgen-independent prostate carcinoma. Uptake data for anti-3-[^18F]-FACBC were also collected under the same conditions for comparison. Alpha-(methylamino)isobutyric acid (MeAIB) was used as a competitive inhibitor for system A transport, 2-amino-bicyclo[2.2.1]heptane2-carboxylic acid (BCH) was used to inhibit system L, and the combination of alanine, serine, and cysteine was used for inhibition of system ASC.

[4] = tested on: human DU145 androgen-independent prostate carcinoma; assay: Cell uptake study in DU145 prostate carcinoma cells; type: cell-based; conditions: for uptake in DU145 cells: no inhibitor, 30 min incubation
Experimental: as §1, §2, §3

[5] = tested on: intracranial 9 L gliosarcoma tumors; assay: MicroPET biodistribution in Fischer rats bearing intracranial 9 L gliosarcoma tumors; type: in vivo; conditions: for background uptake in healthy brain: normal brain, range over the study; for tumor uptake at final time point: final time point / final scan
Experimental: To gain insight into the biodistribution profiles of [^18F]3.09, [^18F]3.23, and [^18F]3.33 each was administered to Fischer rats bearing intracranial 9 L gliosarcoma tumors, which have been used extensively as models for human glioma. With each tracer, uptake in 9 L tumors was higher than in normal brain tissue at all time points, peaking near the 12.5-minute time point. Tumor uptake was highest with [^18F]3.09 and stayed fairly constant at 2.0-2.2% injected dose per gram of tissue (% ID/g) throughout the course of the study. […] While absolute uptake in tumors was highest with [^18F]3.09, background uptake in healthy brain was also highest with this stereoisomer, ranging from 0.59-0.96% % ID/g, compared to uptake values of 0.39-0.46 and 0.28-0.36% ID/g obtained with [^18F]3.23 and [^18F]3.33, respectively.
(§4) [^18F]trans-3,4-DFACPC ([^18F]3.23) was prepared in 1.3% decay corrected radiochemical yield in greater than 99% radio-chemical purity. Competitive uptake inhibition studies with 9 L gliosarcoma, human U87 ΔEGFR glioblastoma, and human DU145 androgen-independent prostate carcinoma cells to establish the mechanism of transport of [^18F]3.23, as well as its affinity for each cell line. The biodistribution of [^18F]3.23 was assessed in normal and intracranial 9 L gliosarcoma bearing rats via micro-PET imaging.

[6] = MicroPET biodistribution in normal Fischer rats (bladder accumulation); type: in vivo; conditions: post injection
Experimental: DFACPC, and anti-3-[^18F] FACBC.
as §4
MicroPET biodistribution studies in normal Fischer rats established that bladder accumulation of [^18F]3.23 is delayed until at least 10 minutes post injection. In rats bearing intracranial 9 L gliosarcoma, [^18F]3.23 gave tumor uptake values of up to 1.2% injected dose per gram (% ID/g) and tumor to contralateral brain tissue ratios of up to 2.8.

[7] = 4.5-minute time point (highest for the tracer)
[8] = range over the three cell lines

Structure (SMILES): N[C@]1(C(=O)O)CCC[C@@H]1[18F] [anti-2-[^18F]-FACPC, anti-1-amino-2-[^18F] fluorocyclopentane-1-carboxylic acid]
inhibition of uptake by BCH (system L) [1]: 71%
inhibition of uptake by MeAIB (system A) [1]: 38%
inhibition of uptake by alanine, serine, and cysteine (system ASC) [1]: 65%

Structure (SMILES): N[C@]1(C(=O)O)C[C@@H](F)[C@@H]([18F])C1 [[^18F]3.09, anti-cis-[^18F]-1-amino-3,4-difluorocyclopentane-1-carboxylic acid]
inhibition of uptake by BCH [2]: 50%
inhibition of uptake by alanine, serine, and cysteine [2]: 78%
relative cell uptake (in words) [3]: greater uptake than [^18F]3.33 in all cell lines
uptake in DU145 cells [4]: 18 % ID/5×10^5 cells
L/N ratio [5, 7]: 3.5
tumor uptake, injected dose per gram of tissue ([5]; 9 L tumor, throughout the course of the study): 2.0-2.2 % ID/g
background uptake in healthy brain [5]: 0.59-0.96 % ID/g

Structure (SMILES): N[C@]1(C(=O)O)C[C@@H](F)C1 [anti-3-[^18F]-FACBC, anti-1-amino-3-[^18F]fluorocyclobutane-1-carboxylic acid]
uptake levels, percent of the initial dose per 0.5 million cells ([3]; across all cell lines tested, no inhibitor, 30 min incubation): 6-20 % ID/5×10^5 cells
mechanism of transport (in words) [3]: primarily a substrate for system ASC
inhibition of uptake by BCH (system L) [3, 8]: 36-56%
inhibition of uptake by alanine, serine, and cysteine (system ASC) [3, 8]: 73-87%
uptake in DU145 cells [4]: 20 % ID/5×10^5 cells

Further lines, with some results ahead:

L/N ratio [5, 7]: 4.3
tumor uptake at final time point ([5]; 9 L tumor): 0.8 % ID/g
tumor uptake, peak value ([5]; 9 L tumor, peak / maximum): 1.2 % ID/g
background uptake in healthy brain [5]: 0.28-0.36 % ID/g
Structure (SMILES): N[C@@]1(C(=O)O)C[C@@H]([18F])[C@@H](F)C1 [[^18F]3.33, syn-cis-[^18F]-1-amino-3,4-difluorocyclopentane-1-carboxylic acid]

bladder accumulation delayed until [6]: at least 10 minutes
tumor uptake at final time point ([5]; 9 L tumor): 1.1 % ID/g
L/N ratio ([5]; 12.5-minute mark (maximum)): 2.8
L/N ratio ([5]; 52.5 minutes): 2.4
tumor to contralateral brain tissue ratios ([5]; maximum (up to)): up to 2.8
background uptake in healthy brain [5]: 0.39-0.46 % ID/g
Structure (SMILES): N[C@]1(C(=O)O)C[C@@H](F)[C@H]([18F])C1 (racemic) [[^18F]3.23, trans-[^18F]-1-amino-3,4-difluorocyclopentane-1-carboxylic acid]
relative cell uptake (in words) [3]: greater uptake than [^18F]3.33 in all cell lines
mechanism of transport (in words) [3]: transported primarily via system L with some transport occurring via system ASC
avidity of DU145 cells (in words) [4]: substantially greater avidity
uptake in DU145 cells, fold higher than [^18F]-FACBC [4]: 1.7 fold
uptake in DU145 cells, fold higher than the best cis-3,4-DFACPC analog [4]: ~2 fold
uptake in DU145 cells [4]: 34 % ID/5×10^5 cells
